Measurements as given in US7208505B2, “β3 adrenergic agonists” (Eli Lilly and Company, priority 2001, dated 2007).

Target: T1, human β3 adrenergic receptor (Homo sapiens, UniProt P13945)
T1 construct: expressed in transfected cells
Assay: whole cell receptor coupled c-AMP assay (Emax relative to isoproterenol)
Assay type: cell-based
Settings: % intrinsic activity: maximal response divided by isoproterenol maximal response times 100; transfected CHO cells; average of at least 3 runs
How it was run: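 Stably transfected CHO DXB-11 cells expressing human β3 receptor incubated 20 min at 37 °C with compound in HBSS/HEPES pH 7.4 containing 1 mM IBMX. cAMP measured by SPA; four-parameter logistic fit, Emax = maximal response as % of isoproterenol maximum.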

T1 sequence (P13945 whole entry): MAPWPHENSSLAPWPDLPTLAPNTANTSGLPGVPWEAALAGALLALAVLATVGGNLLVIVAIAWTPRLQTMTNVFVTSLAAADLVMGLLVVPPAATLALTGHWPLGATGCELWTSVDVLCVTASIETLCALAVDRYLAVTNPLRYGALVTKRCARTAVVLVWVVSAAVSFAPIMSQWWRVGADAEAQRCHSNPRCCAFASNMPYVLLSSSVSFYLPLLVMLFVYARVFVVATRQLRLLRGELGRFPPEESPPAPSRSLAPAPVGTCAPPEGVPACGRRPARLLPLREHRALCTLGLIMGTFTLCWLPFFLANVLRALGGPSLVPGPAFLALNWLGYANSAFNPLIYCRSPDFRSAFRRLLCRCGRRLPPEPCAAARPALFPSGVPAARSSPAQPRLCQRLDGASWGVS

Emax (%) ± SEM: 58.6 ± 0.9%
SMILES: CC(C)(Cc1c[nH]c2cc(C#N)ccc12)NC[C@H](O)COc1ccccc1-c1ccon1 [Example 78]
